Columns and labels:
[1] = molecular target: T1, mouse TLR7 (Mus musculus, UniProt P58681); experiment: cell-based
T1 sequence (P58681 27-1050): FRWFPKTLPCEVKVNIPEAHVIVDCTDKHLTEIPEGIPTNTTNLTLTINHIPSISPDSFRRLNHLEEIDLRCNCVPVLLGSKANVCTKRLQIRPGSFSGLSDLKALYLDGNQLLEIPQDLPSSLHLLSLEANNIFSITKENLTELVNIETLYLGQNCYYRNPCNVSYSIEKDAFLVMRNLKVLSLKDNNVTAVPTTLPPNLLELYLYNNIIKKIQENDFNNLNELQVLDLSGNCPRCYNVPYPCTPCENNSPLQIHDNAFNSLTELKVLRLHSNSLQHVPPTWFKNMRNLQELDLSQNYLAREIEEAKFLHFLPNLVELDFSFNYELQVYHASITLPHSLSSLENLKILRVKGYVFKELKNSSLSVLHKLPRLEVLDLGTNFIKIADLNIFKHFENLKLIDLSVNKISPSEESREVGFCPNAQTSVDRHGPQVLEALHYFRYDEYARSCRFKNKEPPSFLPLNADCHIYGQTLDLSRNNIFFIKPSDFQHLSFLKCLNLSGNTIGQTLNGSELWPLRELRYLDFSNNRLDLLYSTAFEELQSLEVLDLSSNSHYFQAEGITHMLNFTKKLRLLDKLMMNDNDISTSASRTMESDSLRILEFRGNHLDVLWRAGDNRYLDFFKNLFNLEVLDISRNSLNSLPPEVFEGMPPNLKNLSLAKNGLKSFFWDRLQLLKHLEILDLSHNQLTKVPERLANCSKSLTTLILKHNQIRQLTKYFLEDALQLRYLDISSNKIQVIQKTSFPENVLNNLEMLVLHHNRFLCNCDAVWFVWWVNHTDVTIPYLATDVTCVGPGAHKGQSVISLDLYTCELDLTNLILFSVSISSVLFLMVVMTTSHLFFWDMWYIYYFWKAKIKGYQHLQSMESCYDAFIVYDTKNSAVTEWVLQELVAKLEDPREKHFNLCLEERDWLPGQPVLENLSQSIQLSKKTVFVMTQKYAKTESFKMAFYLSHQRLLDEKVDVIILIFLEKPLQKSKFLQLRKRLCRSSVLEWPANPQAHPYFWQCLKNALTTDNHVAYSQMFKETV

[2] = tested on: human PBMCs; experiment: Human PBMC intracellular cytokine staining (flow cytometry); format: cell-based; settings: for frequency of classical monocytes producing IL-12p40 / frequency of mDC producing IL-12p40: 1 h plus 5 h GolgiPlug
Description: Human blood was obtained from healthy adult donors through a University of Montana Institutional Review Board (IRB)-approved protocol. PBMCs were separated from whole blood via density gradient separation using Histopaque 1,077 (Sigma). For PBMC-based assays, cells were resuspended at the desired cell concentration in complete media (RPMI1640+10% FBS+antibiotics). Cells were treated with the indicated compound concentrations and stimulated for 6–24 h depending on the assay as indicated in the figure legends and assays outlined below.
For flow cytometry analysis of innate cytokines, PBMCs were stimulated with indicated concentration of compound for 1 h followed by 5 h incubation with GolgiPlug (BD, 1 μL/mL) at 37°C. Post-stimulation, cells were harvested and surface stained with viability dye, and monoclonal antibodies targeting CD3 AF700 (Tonbo Bioscience, UCHT1), CD19 AF700 (Tonbo Bioscience, HIB19), CD56 AF700 (Biolegend, 5.1H11), HLA-DR BV785 (Biolegend, L243), CD14 APC-Cy7 (Biolegend, 63D3), CD16 PE-Dazzle594 (Biolegend, 3G8), CD11c BV421 (Biolegend, 3.9), and CD123 APC (Biolegend, 6H6). Following fixation and permeabilization with BD Cytofix/Cytoperm buffers, cells were stained with monoclonal antibodies targeting the intracellular cytokines IL-12p40 PE (a shared IL-12 and IL-23 subunit, Biolegend, C11.5), IL-6 FITC (Biolegend MQ2-13A5), IL-4 BV605 (Biolegend, MP4-25D2), and LAP (TGF-β) PE Cy7 [latency-associated peptide ([55]), Biolegend TW4-2F8]. Data were collected using an LSRII flow cytometer (BD) and analyzed using FlowJo 10.0 software (TreeStar).
Figure 7 Lipidated imidazoquinolines elicit T cell polarizing cytokines primarily from APCs. PBMCs from 6 healthy, adult blood donors were stimulated with 2 μM indicated TLR7/8, TLR4, or combination TLR4 + TLR7/8 agonists. After 1 h, brefeldin A (GolgiPlug) was added and cells were incubated for a further 5 h. Cells were then harvested and stained with surface antibodies for phenotyping, fixed and permeablized and stained with antibodies to detect intracellular cytokines. (A) Frequency of IL-12/IL-23+ cells, (B) frequency of IL-6+ cells, (C) frequency of TGFβ (LAP)+ cells, and (D) frequency of IL-4+ cells.

CCCCCCCC/C=C\CCCCCCCC(=O)OC[C@H](COP(=O)(O)OCCc1ccc2c(c1)nc(N)c1nc(CCCC)n(CCO)c12)OC(=O)CCCCCCC/C=C\CCCCCCCC [UM-3005]
EC50 [1]: 1.14 µM
frequency of classical monocytes producing IL-12p40 ([2]; 2 μM): approximately 20%
frequency of mDC producing IL-12p40 ([2]; 2 μM): approximately 20%

CCCCCCCCCCCCCCCC(=O)OC[C@H](COCCOCCOCCOP(=O)(O)OCCn1c(CCCC)nc2c(N)nc3ccccc3c21)OC(=O)CCCCCCCCCCCCCCC [UM-3003]
EC50 [1]: 12.6 µM
frequency of classical monocytes producing IL-12p40 ([2]; 2 μM): Lower frequencies
frequency of mDC producing IL-12p40 ([2]; 2 μM): Lower frequencies

CCCCc1nc2c(N)nc3ccccc3c2n1CCO [UM-3001]
EC50 [1]: 0.48 µM
frequency of mDC producing IL-12p40 ([2]; 2 μM): approximately 20%
frequency of mDC and classical monocytes expressing TGFβ (LAP) ([2]; compound alone, 2 μM): low frequencies
frequency of mDC and classical monocytes expressing TGFβ (LAP) ([2]; in combination with CRX-601, 2 μM): low frequencies

CCCCCCCCCCCCCCCC(=O)OC[C@H](COCCOCCOCCOCCOCCOCCOP(=O)(O)OCCn1c(CCCC)nc2c(N)nc3ccccc3c21)OC(=O)CCCCCCCCCCCCCCC [UM-3004]
EC50 [1]: 0.86 µM
frequency of classical monocytes producing IL-12p40 ([2]; 2 μM): Lower frequencies
frequency of mDC producing IL-12p40 ([2]; 2 μM): Lower frequencies

— paper PMC7075946 (Frontiers in Immunology, 2020)
